How the values were obtained:
human MLKL (full length) = human MLKL (full length) (Homo sapiens (Human), UniProt Q8NB16); assay: KINOMEscan binding assay, human MLKL (full length); settings: KINOMEscan, Table 21; read-out: Human MLKL (full-length) (KD)
Procedure, shortened: (§1)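 Compound dilutions (11 points, 3-fold, mostly from 30,000 nM, 1% DMSO final) competed with immobilized ligand for DNA- or phage-tagged protein, and bead-bound protein was measured by qPCR. Kd values came from Hill-equation fits with slope −1 (Levenberg-Marquardt).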

human RIPK1 = human RIPK1 (Homo sapiens (Human), UniProt Q13546); assay: KINOMEscan binding assay, human RIPK1; settings: Table 21
Chain of human RIPK1 (Q13546 whole entry): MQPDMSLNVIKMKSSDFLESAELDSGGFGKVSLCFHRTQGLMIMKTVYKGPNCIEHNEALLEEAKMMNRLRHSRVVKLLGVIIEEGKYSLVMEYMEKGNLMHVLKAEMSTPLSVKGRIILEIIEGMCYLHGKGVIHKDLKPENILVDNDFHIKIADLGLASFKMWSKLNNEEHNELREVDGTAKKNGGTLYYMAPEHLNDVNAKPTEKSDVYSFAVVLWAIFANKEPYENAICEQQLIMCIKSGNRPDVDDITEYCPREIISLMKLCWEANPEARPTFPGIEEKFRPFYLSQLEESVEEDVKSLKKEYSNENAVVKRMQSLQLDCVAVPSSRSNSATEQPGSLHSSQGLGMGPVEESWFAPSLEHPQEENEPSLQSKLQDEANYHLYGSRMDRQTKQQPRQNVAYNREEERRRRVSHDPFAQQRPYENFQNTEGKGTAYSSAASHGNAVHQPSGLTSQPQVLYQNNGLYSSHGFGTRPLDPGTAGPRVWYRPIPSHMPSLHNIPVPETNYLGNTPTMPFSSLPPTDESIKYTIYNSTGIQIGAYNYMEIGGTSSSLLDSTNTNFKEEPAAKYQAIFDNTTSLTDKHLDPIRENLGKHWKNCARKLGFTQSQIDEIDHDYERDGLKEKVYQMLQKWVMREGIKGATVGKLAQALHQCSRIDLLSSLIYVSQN
Procedure, shortened: as §1

human RIPK3 = human RIPK3 (Homo sapiens (Human), UniProt Q9Y572); assay: KINOMEscan binding assay, human RIPK3; settings: Table 21
Chain of human RIPK3 (Q9Y572 whole entry): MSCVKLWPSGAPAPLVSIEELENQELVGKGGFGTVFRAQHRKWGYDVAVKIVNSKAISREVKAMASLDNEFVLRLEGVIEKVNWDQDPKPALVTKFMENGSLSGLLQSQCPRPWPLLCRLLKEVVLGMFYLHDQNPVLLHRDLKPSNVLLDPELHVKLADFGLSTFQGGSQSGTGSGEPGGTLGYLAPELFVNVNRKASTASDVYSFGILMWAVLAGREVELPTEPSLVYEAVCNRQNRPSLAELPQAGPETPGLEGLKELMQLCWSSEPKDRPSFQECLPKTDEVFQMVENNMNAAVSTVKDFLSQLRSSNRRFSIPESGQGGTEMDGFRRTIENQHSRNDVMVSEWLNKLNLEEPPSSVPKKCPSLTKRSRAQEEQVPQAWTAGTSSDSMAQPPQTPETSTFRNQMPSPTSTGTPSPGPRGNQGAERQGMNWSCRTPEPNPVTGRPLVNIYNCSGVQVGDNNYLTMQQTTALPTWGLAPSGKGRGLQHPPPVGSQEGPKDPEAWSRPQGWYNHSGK
Procedure, shortened: as §1

Chain of human MLKL (full length) (Q8NB16 whole entry): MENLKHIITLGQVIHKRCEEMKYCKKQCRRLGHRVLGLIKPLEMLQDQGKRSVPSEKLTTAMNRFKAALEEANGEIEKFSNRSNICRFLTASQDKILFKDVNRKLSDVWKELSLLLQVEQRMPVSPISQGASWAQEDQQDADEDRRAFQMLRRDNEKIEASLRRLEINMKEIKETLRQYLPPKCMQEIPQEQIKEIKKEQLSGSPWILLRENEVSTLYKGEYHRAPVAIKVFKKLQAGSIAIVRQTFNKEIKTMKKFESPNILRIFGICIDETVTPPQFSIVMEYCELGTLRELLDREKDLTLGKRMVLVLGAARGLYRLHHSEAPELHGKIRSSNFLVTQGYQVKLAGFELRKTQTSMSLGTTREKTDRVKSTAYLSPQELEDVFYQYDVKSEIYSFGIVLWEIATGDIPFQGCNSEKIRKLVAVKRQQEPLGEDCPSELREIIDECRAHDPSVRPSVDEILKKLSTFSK

Kd (human MLKL (full length)) | Kd (human RIPK1) | Kd (human RIPK3) | SMILES
< 0.001 µM | > 10 µM | > 10 µM | CC#Cc1cnc(N)c2c(-c3ccc(NS(=O)(=O)C(F)F)c(O[C@@H](C)c4ccc(F)cc4)c3)nn(C)c12 [Compound 56, (S)-N-(4-(4-amino-1-methyl-7-(prop-1-yn-1-yl)-1H-pyrazolo[4,3-c]pyridin-3-yl)-2-(1-(4-fluorophenyl)ethoxy)phenyl)-1,1-difluoromethane-sulfonamide]
< 0.001 µM | > 10 µM | > 10 µM | C[C@H](Oc1cc(-c2nn(C)c3c(C#CC4CCOCC4)cnc(N)c23)ccc1NS(=O)(=O)C(F)F)c1ccc(F)cc1 [Compound 58, (S)-N-(4-(4-amino-1-methyl-7-((tetrahydro-2H-pyran-4-yl)ethynyl)-1H-pyrazolo[4,3-c]pyridin-3-yl)-2-(1-(4-fluorophenyl)ethoxy)phenyl)-1,1-difluoromethane-sulfonamide]
< 0.001 µM | > 10 µM | > 10 µM | C[C@H](Oc1cc(-c2nn(C)c3c(-c4cnn(C5CCNCC5)c4)cnc(N)c23)ccc1NS(=O)(=O)C(F)F)c1ccc(F)cc1 [Compound 59, N-(4-{4-amino-1-methyl-7-[1-(piperidin-4-yl)-1H-pyrazol-4-yl]-1H-pyrazolo[4,3-c]pyridin-3-yl}-2-[(1 S)-1-(4-fluorophenyl)ethoxy]phenyl)-1,1-difluoromethanesulfonamide]
< 0.001 µM | > 10 µM | > 10 µM | Nc1n[nH]c2nccc(-c3ccc(NS(=O)(=O)C(F)F)c(OCc4ccc(F)cc4)c3)c12 [Compound 66, N-(4-(3-Amino-1H-pyrazolo[3,4-b]pyridin-4-yl)-2-((4-fluorophenyl)methoxy)phenyl)-1,1-difluoromethanesulfonamide]
< 0.001 µM | > 10 µM | > 10 µM | Nc1n[nH]c2nccc(-c3ccc(NS(=O)(=O)CC(F)(F)F)c(OCc4ccc(F)cc4)c3)c12 [Compound 67, N-(4-(3-Amino-1H-pyrazolo[3,4-b]pyridin-4-yl)-2-((4-fluorophenyl)methoxy)phenyl)-2,2,2-trifluoroethane-1-sulfonamide]
< 0.001 µM | > 10 µM | > 10 µM | Nc1n[nH]c2ncnc(-c3ccc(NS(=O)(=O)C(F)F)c(OCc4ccc(F)cc4)c3)c12 [Compound 69, N-(4-(3-Amino-1H-pyrazolo[3,4-d]pyrimidin-4-yl)-2-((4-fluorophenyl)methoxy)phenyl)-1,1-difluoromethanesulfonamide]
< 0.001 µM | > 10 µM | > 10 µM | Cc1cc(-c2ccc(NS(=O)(=O)C(F)F)c(OCc3ccc(F)cc3)c2)c2c(N)n[nH]c2n1 [Compound 70, N-(4-(3-Amino-6-methyl-1H-pyrazolo[3,4-b]pyridin-4-yl)-2-((4-fluorophenyl)methoxy)phenyl)-1,1-difluoromethanesulfonamide]
< 0.001 µM | > 10 µM | > 10 µM | C[C@H](Oc1cc(-c2ccnc3[nH]nc(N)c23)ccc1NS(=O)(=O)C(F)F)c1ccc(F)cc1 [Compound 72, N-(4-(3-Amino-1H-pyrazolo[3,4-b]pyridin-4-yl)-2-((1 S)-1-(4-fluorophenyl)ethoxy)phenyl)-1,1-difluoromethanesulfonamide]
< 0.001 µM | > 10 µM | > 10 µM | C[C@H](Oc1cc(-c2nn(C)c3c(-c4cnn(CCN5CC(C)(C)C5)c4)cnc(N)c23)ccc1NS(=O)(=O)C(F)F)c1ccc(F)cc1 [Compound 75, (S)-N-(4-(4-amino-7-(1-(2-(3,3-dimethylazetidin-1-yl)ethyl)-1H-pyrazol-4-yl)-1-methyl-1H-pyrazolo[4,3-c]pyridin-3-yl)-2-(1-(4-fluorophenyl)ethoxy)phenyl)-1,1-difluoromethanesulfonamide]
< 0.001 µM | > 10 µM | > 10 µM | CC(C)N1CC(n2cc(-c3cnc(N)c4c(-c5ccc(NS(=O)(=O)C(F)F)c(O[C@@H](C)c6ccc(F)cc6)c5)nn(C)c34)cn2)C1 [Compound 76, (S)-N-(4-(4-amino-7-(1-(1-isopropylazetidin-3-yl)-1H-pyrazol-4-yl)-1-methyl-1H-pyrazolo[4,3-c]pyridin-3-yl)-2-(1-(4-fluorophenyl)ethoxy)phenyl)-1,1-difluoromethanesulfonamide]
< 0.001 µM | > 10 µM | > 10 µM | C[C@H](Oc1cc(-c2nn(C)c3c(-c4cnn(C5CN(CC(F)(F)F)C5)c4)cnc(N)c23)ccc1NS(=O)(=O)C(F)F)c1ccc(F)cc1 [Compound 77, (S)-N-(4-(4-amino-1-methyl-7-(1-(1-(2,2,2-trifluoroethyl)azetidin-3-yl)-1H-pyrazol-4-yl)-1H-pyrazolo[4,3-c]pyridin-3-yl)-2-(1-(4-fluorophenyl)ethoxy)phenyl)-1,1-difluoromethanesulfonamide]
< 0.001 µM | > 10 µM | > 10 µM | C[C@H](Oc1cc(-c2nn(C)c3c(-c4cnn(C5CC6(CNC6)C5)c4)cnc(N)c23)ccc1NS(=O)(=O)C(F)F)c1ccc(F)cc1 [Compound 78, (S)-N-(4-(7-(1-(2-azaspiro[3.3]heptan-6-yl)-1H-pyrazol-4-yl)-4-amino-1-methyl-1H-pyrazolo[4,3-c]pyridin-3-yl)-2-(1-(4-fluorophenyl)ethoxy)phenyl)-1,1-difluoromethane-sulfonamide]
< 0.001 µM | > 10 µM | > 10 µM | C[C@H](Oc1cc(-c2nn(C)c3c(C#CC4CCNCC4)cnc(N)c23)ccc1NS(=O)(=O)C(F)F)c1ccc(F)cc1 [Compound 79, (S)—N-(4-(4-amino-1-methyl-7-(piperidin-4-ylethynyl)-1H-pyrazolo[4,3-c]pyridin-3-yl)-2-(1-(4-fluorophenyl)ethoxy)phenyl)-1,1-difluoromethanesulfonamide]
< 0.001 µM | > 10 µM | > 10 µM | CC(C)N(C)C(=O)C(C)n1cc(-c2cnc(N)c3c(-c4ccc(NS(=O)(=O)C(F)F)c(O[C@@H](C)c5ccc(F)cc5)c4)nn(C)c23)cn1 (stereo partly drawn) [Compound 81, 2-(4-(4-amino-3-(4-((difluoromethyl)sulfonamido)-3-((S)-1-(4-fluorophenyl)ethoxy)phenyl)-1-methyl-1H-pyrazolo[4,3-c]pyridin-7-yl)-1H-pyrazol-1-yl)-N-isopropyl-N-methylpropanamide]
< 0.001 µM | > 10 µM | > 10 µM | CNCCn1cc(-c2cnc(N)c3c(-c4ccc(NS(=O)(=O)C(F)F)c(O[C@@H](C)c5ccc(F)cc5)c4)nn(C)c23)cn1 [Compound 82, (S)-N-(4-(4-amino-1-methyl-7-(1-(2-(methylamino)ethyl)-1H-pyrazol-4-yl)-1H-pyrazolo[4,3-c]pyridin-3-yl)-2-(1-(4-fluorophenyl)ethoxy)phenyl)-1,1-difluoromethanesulfonamide]

SMILES | Kd (human MLKL (full length)) | Kd (human RIPK1) | Kd (human RIPK3)
C[C@H](Oc1cc(-c2nn(C)c3c(-c4cnn(C5CC6CCC(C5)N6C)c4)cnc(N)c23)ccc1NS(=O)(=O)C(F)F)c1ccc(F)cc1 (stereo partly drawn) [Compound 73, N-(4-(4-amino-1-methyl-7-(1-(8-methyl-8-azabicyclo[3.2.1]octan-3-yl)-1H-pyrazol-4-yl)-1H-pyrazolo[4,3-c]pyridin-3-yl)-2-((S)-1-(4-fluorophenyl)ethoxy)phenyl)-1,1-difluoromethanesulfonamide] | < 0.001 µM | > 10 µM | > 10 µM

— patent US20250115598A1 (Anaxis Pharma Pty Ltd, priority 2021, published 2025)
